According to patent US20130190275A1, “COMBINED THERAPIES OF ANTIPSYCHOTIC DRUGS AND TETRACYCLINES IN THE TREATMENT OF PSYCHIATRIC DISORDERS” (MOR RESEARCH APPLICATIONS LTD., priority 2006, published 2013):

Tests used:
Type in all cases: in vivo, human
[1] = tested on: patients who experience first psychotic episode; experiment: CANTAB Stockings of Cambridge (SOC), adjuvant study; settings: atypical antipsychotic drug+minocycline 200 mg/day vs +placebo; p=0.001
Experimental: (§1) The study was carried out in patients who experience first psychotic episode, and has followed the patient for a total duration of 6 months. As the study examines Minocycline as an adjuvant drug, the sample includes patients receiving one of the following atypical anti-psychotic drugs: Risperdal, Zyprexa, Geodon, Seroquel, and Leponex. […] In addition, the subjects were assessed by a battery of computerized neuropsychological tests (CANTAB—Cambridge Neuropsychological Test Automated Battery), measuring attention, memory, and planning. Executive function was tested by two tasks of the CANTAB: planning was tested by a computerized modification of the Tower of London, and working memory by a spatial working memory task. Minocycline was given as an add-on therapy. […] Clinical status was evaluated by the aforementioned scales at the onset of the study, every week for the first 6 weeks, and then once a month for the rest of the study period. Cognitive capabilities were assessed by the neuropsychological battery of tests according to the following schedule: upon initiation of the study (referred to as visit 1 in FIGS. 5-8), 3 months (referred to as visit 2 in FIGS. 5-8), and 6 months (referred to as visit 3 in FIGS. 5-8) after the start of the study. […]

[2] = tested on: patients who experience first psychotic episode; experiment: CANTAB Spatial Working Memory (SWM), adjuvant study; settings: atypical antipsychotic drug+minocycline 200 mg/day vs +placebo
Experimental: as §1

[3] = tested on: patients who experience first psychotic episode; experiment: SANS (Scale for the Assessment of Negative Symptoms), adjuvant study; settings: atypical antipsychotic drug+minocycline 200 mg/day vs +placebo; group x time p<0.01
Experimental: (§2) The study was carried out in patients who experience first psychotic episode, and has followed the patient for a total duration of 6 months. As the study examines Minocycline as an adjuvant drug, the sample includes patients receiving one of the following atypical anti-psychotic drugs: Risperdal, Zyprexa, Geodon, Seroquel, and Leponex. […] Initial evaluation included the following clinical measures: • SCID (for reliability of diagnosis) • CGI (Clinical Global Impression) • PANSS (Positive and Negative Syndrome Scale for Schizophrenia) • SANS (Scale for the Assessment of Negative Symptoms) • Calgary Depression Scale for Schizophrenia • GAF • GRAF • Insight and Treatment Attitudes Questionnaire • QLS (Quality of Life Scale) • Multinomah Community Ability Scale • Extrapyramidal Side Effects Scale. Minocycline was given as an add-on therapy. […] Clinical status was evaluated by the aforementioned scales at the onset of the study, every week for the first 6 weeks, and then once a month for the rest of the study period. Cognitive capabilities were assessed by the neuropsychological battery of tests according to the following schedule: upon initiation of the study (referred to as visit 1 in FIGS. 5-8), 3 months (referred to as visit 2 in FIGS. 5-8), and 6 months (referred to as visit 3 in FIGS. 5-8) after the start of the study. […]

[4] = tested on: patients who experience first psychotic episode; experiment: GRAF score, adjuvant study; settings: atypical antipsychotic drug+minocycline 200 mg/day vs +placebo; group x time p<0.05
Experimental: as §2

SMILES: CN(C)c1ccc(O)c2c1C[C@H]1C[C@H]3[C@H](N(C)C)C(O)=C(C(N)=O)C(=O)[C@@]3(O)C(O)=C1C2=O [minocycline]
- SOC number of problems solved in minimum moves [1]: improved significantly more than the placebo group
- SWM between errors ([2]; p<0.0001): improved significantly more than the placebo group
- SWM strategy score ([2]; p<0.05): improved significantly more than the placebo group
- total SANS score [3]: greater improvement than the placebo group
- GRAF score [4]: greater improvement of the GRAF score
